Consider 14 compounds from US12178791B2, “Haloallylamine sulfone derivative inhibitors of lysyl oxidases and uses thereof” (Syntara Limited, priority 2018, dated 2024).

Where a name gives a salt, the structure may show the parent alone.

What all share (assay type): biochemical
One assay addresses Bovine LOX (Bos taurus (Bovine), UniProt P33072). In words: LOX inhibition, Amplex Red oxidation assay. Particulars: 30 min preincubation at 37 °C, putrescine substrate. An excerpt: Lysyl oxidase (LOX) is an extracellular copper dependent enzyme which oxidizes peptidyl lysine and hydroxylysine residues in collagen and lysine residues in elastin to produce peptidyl alpha-aminoadipic-delta-semialdehydes. […] There are five LOX family members; these are LOX, LOXL1, LOXL2, LOXL3 and LOXL4. LOX and LOXL family members can be acquired as recombinant active proteins from commercial sources, or extracted from animal tissues like bovine aorta, tendons, pig skin; or prepared from cell cultures. The inhibitory effects of the compounds of the present invention were tested against the given LOX-LOXL preparation using a method based on the detection of hydrogen peroxide with an Amplex Red oxidation assay (Zhou et al. A stable nonfluorescent derivative of resorufin for the fluorometric determination of trace hydrogen peroxide: applications in detecting the activity of phagocyte NADPH oxidase and other oxidases. Anal. Biochem. 1997; 253, 162-168). The assay was developed using either 384 or 96 well format. Briefly, in a standard black, clear bottom 384 well plate assay 25 μL of a dilution of any of the isoenzymes and orthologues in 1.2 M urea, 50 mM sodium borate buffer (pH 8.2) were added into each well in the presence of 1 μM mofegiline and 0.5 mM pargyline (to inhibit SSAO and MAO-B and MAO-A, respectively; not necessary if the enzyme is from a recombinant or purified form). […] Twenty five μL of a reaction mixture containing twice the KM concentration of putrescine (Sigma Aldrich, e.g. 20 mM for LOX, or 10 mM for LOXL2 and LOXL3), 120 μM Amplex Red (Sigma Aldrich) and 1.5 U/mL horseradish peroxidase (Sigma Aldrich) prepared in 1.2 M urea, 50 mM sodium borate buffer (pH 8.2) were then added to the corresponding wells. The above volumes were doubled in the case of 96 wells plate. The fluorescence (RFU) was read every 2.5 min for 30 min at […] 37° C., excitation 565 nm and emission 590 (Optima; BMG labtech). The slope of the kinetics for each well was calculated using MARS data analysis software (BMG labtech) and this value was used to deduce the IC50 value (Dotmatics).

For a further assay, the target named is LOXL2 (Homo sapiens (Human), UniProt Q9Y4K0). Put plainly: LOXL2 inhibition, Amplex Red oxidation assay. Conditions: 30 min preincubation at 37 °C, putrescine substrate. An excerpt: Lysyl oxidase (LOX) is an extracellular copper dependent enzyme which oxidizes peptidyl lysine and hydroxylysine residues in collagen and lysine residues in elastin to produce peptidyl alpha-aminoadipic-delta-semialdehydes. […] There are five LOX family members; these are LOX, LOXL1, LOXL2, LOXL3 and LOXL4. LOX and LOXL family members can be acquired as recombinant active proteins from commercial sources, or extracted from animal tissues like bovine aorta, tendons, pig skin; or prepared from cell cultures. The inhibitory effects of the compounds of the present invention were tested against the given LOX-LOXL preparation using a method based on the detection of hydrogen peroxide with an Amplex Red oxidation assay (Zhou et al. A stable nonfluorescent derivative of resorufin for the fluorometric determination of trace hydrogen peroxide: applications in detecting the activity of phagocyte NADPH oxidase and other oxidases. Anal. Biochem. 1997; 253, 162-168). The assay was developed using either 384 or 96 well format. Briefly, in a standard black, clear bottom 384 well plate assay 25 μL of a dilution of any of the isoenzymes and orthologues in 1.2 M urea, 50 mM sodium borate buffer (pH 8.2) were added into each well in the presence of 1 μM mofegiline and 0.5 mM pargyline (to inhibit SSAO and MAO-B and MAO-A, respectively; not necessary if the enzyme is from a recombinant or purified form). Test compounds were dissolved in DMSO and tested in a Concentration Response Curve (CRC) with 11 data points, typically in the micromolar or nanomolar range after incubation with the enzyme for 30 min at 37° C. Twenty five μL of a reaction mixture containing twice the KM concentration of putrescine (Sigma Aldrich, e.g. 20 mM for LOX, or 10 mM for LOXL2 and LOXL3), 120 μM Amplex Red (Sigma Aldrich) and 1.5 U/mL horseradish peroxidase (Sigma Aldrich) prepared in 1.2 M urea, 50 mM sodium borate buffer (pH 8.2) were then added to the corresponding wells. The above volumes were doubled in the case of 96 wells plate. The fluorescence (RFU) was read every 2.5 min for 30 min at […] 37° C., excitation 565 nm and emission 590 (Optima; BMG labtech). The slope of the kinetics for each well was calculated using MARS data analysis software (BMG labtech) and this value was used to deduce the IC50 value (Dotmatics).
Sequence of LOXL2 (Q9Y4K0 26-774): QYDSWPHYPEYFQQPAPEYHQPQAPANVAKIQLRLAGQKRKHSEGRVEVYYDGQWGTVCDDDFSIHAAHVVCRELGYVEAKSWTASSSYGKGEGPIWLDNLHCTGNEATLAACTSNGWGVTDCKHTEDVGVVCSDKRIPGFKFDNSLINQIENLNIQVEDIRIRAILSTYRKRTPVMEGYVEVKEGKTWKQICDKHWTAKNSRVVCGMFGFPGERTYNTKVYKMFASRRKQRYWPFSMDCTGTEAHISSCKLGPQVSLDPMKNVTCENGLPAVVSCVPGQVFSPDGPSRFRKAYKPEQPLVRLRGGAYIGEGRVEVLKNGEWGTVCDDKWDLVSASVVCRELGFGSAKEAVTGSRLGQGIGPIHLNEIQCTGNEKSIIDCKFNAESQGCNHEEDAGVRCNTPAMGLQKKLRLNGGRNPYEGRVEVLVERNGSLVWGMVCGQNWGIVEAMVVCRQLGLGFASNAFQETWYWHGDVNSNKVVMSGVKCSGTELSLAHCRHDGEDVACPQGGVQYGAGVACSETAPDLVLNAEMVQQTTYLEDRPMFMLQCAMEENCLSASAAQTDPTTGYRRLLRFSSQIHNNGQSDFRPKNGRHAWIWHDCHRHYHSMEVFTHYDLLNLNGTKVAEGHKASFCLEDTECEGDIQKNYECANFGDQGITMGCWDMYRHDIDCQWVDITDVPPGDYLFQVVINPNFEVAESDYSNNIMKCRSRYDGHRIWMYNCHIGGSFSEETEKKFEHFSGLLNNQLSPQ

Assay [1] addresses Human recombinant SSAO/VAP-1 (Homo sapiens (Human), UniProt Q16853). In words: Inhibition of human recombinant SSAO/VAP-1. Particulars: 30 min preincubation at 37 °C, benzylamine 600 μM; read-out: SSAO/VAP-1 Activity IC50. On the procedure: Human recombinant SSAO/VAP-1 amine oxidase activity was determined using the coupled colorimetric method as described for monoamine oxidase, copper-containing amine oxidases and related enzymes (Holt A. and Palcic M., A peroxidase-coupled continuous absorbance plate-reader assay for flavin monoamine oxidases, copper-containing amine oxidases and related enzymes. Nat Protoc 2006; 1: 2498-2505). Briefly, a cloned cDNA template corresponding to residues 34-763 of human SSAO/VAP-1, and incorporating a mouse Ig kappa (κ) signal sequence, N-terminal flag epitope tag and tobacco etch virus (TEV) cleavage site, was assembled in a mammalian expression vector (pLO-CMV) by Geneart AG. This vector containing human SSAO/VAP-1 residues was transfected into CHO-Kl glycosylation mutant cell line, Lec 8. A clone stably expressing human SSAO/VAP-1 was isolated and cultured in large scale. Active human SSAO/VAP-1 was purified and recovered using immunoaffinity chromatography. This was used as the source for SSAO/VAP-1 activity. A high-throughput colorimetric assay was developed using either 96 or 384 well format. Briefly, in a standard 96 well plate assay 50 μL of purified human SSAO/VAP-1 (0.25 μg/mL) in 0.1 M sodium phosphate buffer (pH 7.4) was added into each well. Test compounds were dissolved in DMSO and tested in a Concentration Response Curve (CRC) with 4-11 data points, typically in the micromolar or nanomolar range after incubation with human SSAO/VAP-1 for 30 min at 37° C. After 30 min incubation, 50 μL of the reaction mixture containing 600 μM benzylamine (Sigma Aldrich), 120 μM Amplex Red (Sigma Aldrich) and 1.5 U/mL horseradish peroxidase (Sigma Aldrich) prepared in 0.1 M sodium phosphate buffer (pH 7.4) were added to the corresponding well. The fluorescence unit (RFU) was read every 2.5 min for 30 min at 37° C. excitation 565 nm and emission 590 (Optima; BMG labtech). The slope of the kinetics for each well was calculated using MARS data analysis software (BMG labtech) and this value was used to deduce the IC50 value (Dotmatics).

In a further assay the target is Recombinant human MAO-B (Homo sapiens (Human), UniProt P27338). Put plainly: Inhibition of human recombinant MAO-B. Particulars: benzylamine 100 μM. On the procedure: The specificity of the compounds of this invention was tested by determining their ability to inhibit MAO-B activities in vitro. Recombinant human MAO-B (0.06 mg/mL; Sigma Aldrich) was used as source of MAO-B enzyme activities. The assay was performed in a similar way as for human SSAO/VAP-1 (Example 28) except, the substrate benzylamine was used at 100 μM.
Sequence of Recombinant human MAO-B (P27338 whole entry): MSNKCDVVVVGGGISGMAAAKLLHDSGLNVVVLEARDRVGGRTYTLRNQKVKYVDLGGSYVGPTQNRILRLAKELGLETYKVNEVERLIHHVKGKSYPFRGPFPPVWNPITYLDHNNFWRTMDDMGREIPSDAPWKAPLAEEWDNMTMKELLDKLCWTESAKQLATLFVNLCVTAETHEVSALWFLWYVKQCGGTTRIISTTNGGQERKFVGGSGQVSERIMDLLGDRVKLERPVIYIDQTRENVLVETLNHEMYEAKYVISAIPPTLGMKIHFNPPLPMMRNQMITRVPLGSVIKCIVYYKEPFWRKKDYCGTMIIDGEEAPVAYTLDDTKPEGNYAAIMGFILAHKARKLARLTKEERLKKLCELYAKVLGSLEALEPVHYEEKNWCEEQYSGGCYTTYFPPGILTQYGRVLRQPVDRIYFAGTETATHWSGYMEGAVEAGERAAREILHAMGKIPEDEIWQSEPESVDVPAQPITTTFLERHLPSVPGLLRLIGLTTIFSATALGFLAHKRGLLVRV

A further assay concerns the target LOXL1 (Homo sapiens (Human), UniProt Q08397). Put plainly: Jump dilution experiment, sustained inhibition of LOXL1.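 Further: 30× IC50 used only where needed so inhibitor exceeds enzyme concentration.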 Particulars: jump dilution after 40 min at 37 °C with 10× or 30× IC50; vs non-inhibited controls. On the procedure:
Jump Dilution experiment: The assay was developed using a 96 well format and the starting enzyme concentration was set 100 times higher than for the inhibition studies. […] After the incubation, the mixture was diluted 50× in assay buffer, followed by a further 2× dilution in Amplex Red-horseradish peroxidase-putrescine reaction mix (same as per the inhibition studies) prior to the fluorescent measurement. Results were expressed in % recovery of the signal after a specified time by comparison with non-inhibited controls.

Sequence of LOXL1 (Q08397 96-574, species assumed): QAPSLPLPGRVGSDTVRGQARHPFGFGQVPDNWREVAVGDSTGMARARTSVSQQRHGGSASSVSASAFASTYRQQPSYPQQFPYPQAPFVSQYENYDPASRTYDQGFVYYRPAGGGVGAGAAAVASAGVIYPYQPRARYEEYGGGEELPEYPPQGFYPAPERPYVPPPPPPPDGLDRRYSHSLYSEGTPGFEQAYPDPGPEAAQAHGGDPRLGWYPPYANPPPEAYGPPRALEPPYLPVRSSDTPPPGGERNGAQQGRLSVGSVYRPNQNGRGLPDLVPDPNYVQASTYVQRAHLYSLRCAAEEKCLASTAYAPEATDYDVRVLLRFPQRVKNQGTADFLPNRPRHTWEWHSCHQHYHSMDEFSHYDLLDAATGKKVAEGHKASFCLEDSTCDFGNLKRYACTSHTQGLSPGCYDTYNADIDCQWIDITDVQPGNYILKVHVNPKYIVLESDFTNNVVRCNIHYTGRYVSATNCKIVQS
Sequence of Human recombinant SSAO/VAP-1 (Q16853 34-763): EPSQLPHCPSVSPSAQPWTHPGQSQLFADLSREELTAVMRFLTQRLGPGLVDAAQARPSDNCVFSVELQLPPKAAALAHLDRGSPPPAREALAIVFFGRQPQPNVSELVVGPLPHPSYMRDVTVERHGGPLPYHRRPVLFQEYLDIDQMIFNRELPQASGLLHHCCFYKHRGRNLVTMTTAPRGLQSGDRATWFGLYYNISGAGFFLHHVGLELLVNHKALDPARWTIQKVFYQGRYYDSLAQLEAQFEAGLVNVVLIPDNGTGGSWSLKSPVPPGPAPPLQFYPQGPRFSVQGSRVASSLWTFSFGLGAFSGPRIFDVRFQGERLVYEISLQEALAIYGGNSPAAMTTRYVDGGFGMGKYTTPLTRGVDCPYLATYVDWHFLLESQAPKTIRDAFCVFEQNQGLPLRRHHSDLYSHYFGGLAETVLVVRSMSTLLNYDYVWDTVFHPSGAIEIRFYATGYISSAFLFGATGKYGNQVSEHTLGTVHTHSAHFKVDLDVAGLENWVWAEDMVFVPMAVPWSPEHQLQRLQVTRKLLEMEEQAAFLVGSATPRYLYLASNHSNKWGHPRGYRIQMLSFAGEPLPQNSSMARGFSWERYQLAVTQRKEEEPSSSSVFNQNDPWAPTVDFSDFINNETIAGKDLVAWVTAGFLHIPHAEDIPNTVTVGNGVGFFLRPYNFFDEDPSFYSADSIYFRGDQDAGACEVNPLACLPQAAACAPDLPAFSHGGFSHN
Sequence of Bovine LOX (P33072 170-418): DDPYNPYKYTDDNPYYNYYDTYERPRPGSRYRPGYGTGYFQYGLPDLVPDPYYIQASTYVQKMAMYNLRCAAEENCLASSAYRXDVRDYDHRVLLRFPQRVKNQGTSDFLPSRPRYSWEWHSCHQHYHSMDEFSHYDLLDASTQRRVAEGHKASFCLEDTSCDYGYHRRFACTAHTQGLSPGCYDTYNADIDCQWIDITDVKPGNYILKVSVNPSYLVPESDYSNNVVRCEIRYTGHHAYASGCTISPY

`NC/C=C(\F)CS(=O)(=O)c1cc(C(F)(F)F)cc(C(F)(F)F)c1` [Compound 2, (Z)-4-((3,5-bis(trifluoromethyl)phenyl)sulfonyl)-3-fluorobut-2-en-1-amine hydrochloride]: the IC50 against Bovine LOX was below 10 µM; against LOXL2, below 10 µM; in assay [1], above 30 µM; on Recombinant human MAO-B it was above 30 µM.

`CS(=O)(=O)c1ccc(S(=O)(=O)C/C(F)=C/CN)cc1` [Compound 3, (Z)-3-fluoro-4-((4-(methylsulfonyl)phenyl)sulfonyl)but-2-en-1-amine]: the IC50 at Bovine LOX was below 10 µM; against LOXL2, below 10 µM; in assay [1] it was above 30 µM; on Recombinant human MAO-B, above 30 µM.

`NC/C=C(\F)CS(=O)(=O)c1ccccc1OCc1ccccc1` [Compound 7, (Z)-4-((2-(benzyloxy)phenyl)sulfonyl)-3-fluorobut-2-en-1-amine hydrochloride]: the IC50 was below 10 µM against Bovine LOX, below 1 µM at LOXL2, above 30 µM in assay [1] and above 30 µM at Recombinant human MAO-B. Also, the “LOXL1 - Recovery of activity. (%)” value on LOXL1 came out at 3.0%.

`NC/C=C(\F)CS(=O)(=O)c1ccccc1OCc1ccc(S(N)(=O)=O)cc1` [Compound 8, (Z)-4-((2-((4-amino-2-fluorobut-2-en-1-yl)sulfonyl)phenoxy)methyl)benzenesulfonamide hydrochloride]: the IC50 against Bovine LOX was below 1 µM; on LOXL2 it was below 1 µM; in assay [1], above 30 µM; at Recombinant human MAO-B it was above 30 µM. In addition, the “LOXL1 - Recovery of activity. (%)” value on LOXL1 is 35.1%.

Take `NC/C=C(\F)CS(=O)(=O)c1cccc2ccccc12` [Compound 23, (Z)-3-fluoro-4-(naphthalen-1-ylsulfonyl)but-2-en-1-amine hydrochloride]: the IC50 was below 10 µM against Bovine LOX, below 1 µM against LOXL2 and above 30 µM in assay [1].

`NC/C=C(\F)CS(=O)(=O)c1cc(Cl)cc(Cl)c1` [Compound 28, (Z)-4-(3,5-dichlorophenylsulfonyl)-3-fluorobut-2-en-1-amine hydrochloride]: the IC50 against Bovine LOX was below 10 µM; against LOXL2, below 1 µM; in assay [1], above 30 µM.

Consider `NC/C=C(\F)CS(=O)(=O)c1ccncc1` [Compound 29, (Z)-3-fluoro-4-(pyridin-4-ylsulfonyl)but-2-en-1-amine dihydrochloride], for which the IC50 on Bovine LOX is below 10 µM; on LOXL2, below 1 µM. Besides, on LOXL1, the “LOXL1 - Recovery of activity. (%)” value is 8.6%.

Turning to `NC/C=C(\F)CS(=O)(=O)c1ccccn1` [Compound 30, (Z)-3-fluoro-4-(pyridin-2-ylsulfonyl)but-2-en-1-amine dihydrochloride], the results for the IC50 against Bovine LOX and on LOXL2 were below 10 µM and below 1 µM, respectively. In addition, at LOXL1, the “LOXL1 - Recovery of activity. (%)” value was 1.9%.

In the case of `NC/C=C(\F)CS(=O)(=O)c1ccc2ccccc2n1` [Compound 32, (Z)-3-fluoro-4-(quinolin-2-ylsulfonyl)but-2-en-1-amine dihydrochloride], the IC50 against Bovine LOX is below 10 µM; at LOXL2, below 1 µM; at Recombinant human MAO-B, above 30 µM.

As to `NC/C=C(\F)CS(=O)(=O)c1cccc(F)c1` [Compound 38, (Z)-3-fluoro-4-(3-fluorophenylsulfonyl)but-2-en-1-amine hydrochloride], the IC50 on Bovine LOX was below 10 µM; on LOXL2, below 1 µM. Besides, the “LOXL1 - Recovery of activity. (%)” value on LOXL1 was determined as 1.6%.

As to `CC(C)c1ncccc1S(=O)(=O)C/C(F)=C/CN` [Compound 45, (Z)-3-fluoro-4-(2-isopropylpyridin-3-ylsulfonyl)but-2-en-1-amine dihydrochloride], the IC50 against Bovine LOX is below 10 µM; against LOXL2, below 1 µM; in assay [1] it was above 30 µM. Also, the “LOXL1 - Recovery of activity. (%)” value on LOXL1 came to 6.6%.

On to `Cc1ccc(S(=O)(=O)C/C(F)=C/CN)cn1` [Compound 46, (Z)-3-fluoro-4-(6-methylpyridin-3-ylsulfonyl)but-2-en-1-amine dihydrochloride], for which the IC50 on Bovine LOX was below 10 µM; against LOXL2, below 1 µM. Besides, the “LOXL1 - Recovery of activity. (%)” value on LOXL1 turned out to be 1.0%.

In the case of `Cc1nc2c(S(=O)(=O)C/C(F)=C/CN)cccc2s1` [Compound 50, (Z)-3-fluoro-4-((2-methylbenzo[d]thiazol-4-yl)sulfonyl)but-2-en-1-amine hydrochloride], the IC50 was below 10 µM on Bovine LOX, below 1 µM against LOXL2 and above 30 µM in assay [1].

Take `NC/C=C(\F)CS(=O)(=O)c1cccc2cc(F)cnc12` [Compound 51, (Z)-3-fluoro-4-((3-fluoroquinolin-8-yl)sulfonyl)but-2-en-1-amine dihydrochloride]: the IC50 against Bovine LOX is below 10 µM; against LOXL2, below 1 µM; in assay [1] it was above 10 µM; at Recombinant human MAO-B it was above 30 µM.
